Test system: Lewis lung cancer cells
Assay: Tumor growth inhibition assay in vivo of vinorelbine micellar preparation
Design: species or system Balb/c mice
Conditions: for Volume of tumor (mm^3): 5 mg/kg iv on the 1st, 8th and 15th day
Procedure: Fresh Lewis lung cancer cells (ATTC, CRL-1642) were inoculated subcutaneously into the axillary region of right forelimb of Balb/c mice (1×10^7/ml, 0.2 ml/mice). The mice (17-19 g, female) bearing tumor were then randomly divided into three groups, i.e. control group, free vinorelbine group (F-VNR) and vinorelbine micelle group (M-VNR), 6 mice each group. Administration was carried out on the next day to the inoculation. The doses of both F-VNR and M-VNR were 5 mg/kg (drug concentration: 0.5 mg/ml), iv volume 0.1 ml/10 g body weight, and the dose of the control group was iv 0.1 ml/10 g body weight of physiological saline. Dosing was performed once a week and continued for three weeks (dosing on the 1st, 8th and 15th day, respectively), wherein the length (a) and width (b) of the tumors were measured with vernier caliper on the 7th, 10th, 14th, 17th, and 21th day, respectively. The volume of the tumor was calculated according the formula V=a×b^2/2. […] The experiment results were shown in FIG. 5 as well as following table.

## CCC1=C[C@@H]2CN(C1)Cc1c([nH]c3ccccc13)[C@@](C(=O)OC)(c1cc3c(cc1OC)N(C)[C@H]1[C@@](O)(C(=O)OC)[C@H](OC(C)=O)[C@]4(CC)C=CCN5CC[C@]31[C@@H]54)C2 [F-VNR, vinorelbine]
5 mg/kg iv once a week for three weeks
  effect on growth of Lewis lung cancer tumor (in words): almost ineffective
7 days
  Volume of tumor (mm^3): 217 ± 94.5 mm^3
10 days
  Volume of tumor (mm^3): 810.3 ± 407.6 mm^3
14 days
  Volume of tumor (mm^3): 1694.3 ± 789.1 mm^3
17 days
  Volume of tumor (mm^3): 2460.1 ± 1367.1 mm^3
21 days
  Volume of tumor (mm^3): 5163 ± 2623.8 mm^3

Source: patent publication US8765181B2, “Nano anticancer micelles of vinca alkaloids entrapped in polyethylene glycolylated phospholipids” (Beijing Diacrid Medical Technology Co., Ltd, priority 2005, dated 2014)
